Test results published in the supplement of paper PMC10883282.

Tests used:
Test in all cases: relative viability vs DMSO control (72 h) (fraction); higher = more viable cells
SW684 = test system: SW684
In short: (§1)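 Relative viability is percent growth read by ATPLite and averaged over up to triplicate wells. Sarcoma cells were seeded in 384-well plates to reach 80–90% confluence and given 2.5 µl of serially diluted compound after 24 h, from source plates of 10 mM to 0.0002 mM. Incubation lasted 72 h at 37 °C, 5% CO2, with 0.1% DMSO vehicle and a 5 µM positive control, and the data were rescaled so 1 equals full and 0 equals none.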

A204 = test system: A204
In short: as §1

SK-ES-1 = test system: SK-ES-1
In short: as §1

G401 = test system: G401
In short: as §1

SK-LMS-1 = test system: SK-LMS-1
In short: as §1

HS729 = test system: HS729
In short: as §1

SW872 = test system: SW872
In short: as §1

MES-SA = test system: MES-SA
In short: as §1

SYO-1 = test system: SYO-1
In short: as §1

SW1353 = test system: SW1353
In short: as §1

SW982 = test system: SW982
In short: as §1

KHOS-240S = test system: KHOS-240S
In short: as §1

Cc1cc2c(F)c(Oc3ncnn4cc(OC[C@@H](C)OC(=O)[C@H](C)N)c(C)c34)ccc2[nH]1 [Brivanib_alaninate]
Conditions | relative viability
A204, 0.00017 µM | 1.05
A204, 0.00051 µM | 1.05
A204, 0.00152 µM | 1.07
A204, 0.00457 µM | 1.11
A204, 0.01372 µM | 1.08
A204, 0.04115 µM | 1.04
A204, 0.1235 µM | 1.03
A204, 0.3704 µM | 1.05
A204, 1.111 µM | 0.999
A204, 3.333 µM | 0.958
A204, 10 µM | 0.567
G401, 0.00017 µM | 0.968
G401, 0.00051 µM | 0.967
G401, 0.00152 µM | 1
G401, 0.00457 µM | 1.01
G401, 0.01372 µM | 0.974
G401, 0.04115 µM | 0.995
G401, 0.1235 µM | 0.982
G401, 0.3704 µM | 0.976
G401, 1.111 µM | 1
G401, 3.333 µM | 0.953
G401, 10 µM | 0.8674
HS729, 0.00017 µM | 0.943
HS729, 0.00051 µM | 0.893
HS729, 0.00152 µM | 0.914
HS729, 0.00457 µM | 0.878
HS729, 0.01372 µM | 0.9
HS729, 0.04115 µM | 0.897
HS729, 0.1235 µM | 0.877
HS729, 0.3704 µM | 0.898
HS729, 1.111 µM | 0.923
HS729, 3.333 µM | 0.891
HS729, 10 µM | 0.782
KHOS-240S, 0.00017 µM | 1.016
KHOS-240S, 0.00051 µM | 1.04
KHOS-240S, 0.00152 µM | 1.03
KHOS-240S, 0.00457 µM | 1.04
KHOS-240S, 0.01372 µM | 1.052
KHOS-240S, 0.04115 µM | 1.03
KHOS-240S, 0.1235 µM | 1.03
KHOS-240S, 0.3704 µM | 1.04
KHOS-240S, 1.111 µM | 1.007
KHOS-240S, 3.333 µM | 0.93
KHOS-240S, 10 µM | 0.738
MES-SA, 0.00017 µM | 0.919
MES-SA, 0.00051 µM | 0.939
MES-SA, 0.00152 µM | 0.939
MES-SA, 0.00457 µM | 0.929
MES-SA, 0.01372 µM | 0.927
MES-SA, 0.04115 µM | 0.911
MES-SA, 0.1235 µM | 0.92
MES-SA, 0.3704 µM | 0.942
MES-SA, 1.111 µM | 0.956
MES-SA, 3.333 µM | 0.829
MES-SA, 10 µM | 0.5146
SK-ES-1, 0.00017 µM | 1.07
SK-ES-1, 0.00051 µM | 1.07
SK-ES-1, 0.00152 µM | 1.06
SK-ES-1, 0.00457 µM | 1.05
SK-ES-1, 0.01372 µM | 1.05
SK-ES-1, 0.04115 µM | 1.03
SK-ES-1, 0.1235 µM | 1.06
SK-ES-1, 0.3704 µM | 1.05
SK-ES-1, 1.111 µM | 1.044
SK-ES-1, 3.333 µM | 0.991
SK-ES-1, 10 µM | 0.921
SK-LMS-1, 0.00017 µM | 0.967
SK-LMS-1, 0.00051 µM | 0.995
SK-LMS-1, 0.00152 µM | 0.978
SK-LMS-1, 0.00457 µM | 1.01
SK-LMS-1, 0.01372 µM | 1.01
SK-LMS-1, 0.04115 µM | 0.987
SK-LMS-1, 0.1235 µM | 0.989
SK-LMS-1, 0.3704 µM | 0.998
SK-LMS-1, 1.111 µM | 1
SK-LMS-1, 3.333 µM | 0.606
SK-LMS-1, 10 µM | 0.512
SW684, 0.00017 µM | 1.15
SW684, 0.00051 µM | 1.15
SW684, 0.00152 µM | 1.17
SW684, 0.00457 µM | 1.14
SW684, 0.01372 µM | 1.08
SW684, 0.04115 µM | 1.07
SW684, 0.1235 µM | 1.09
SW684, 0.3704 µM | 1.17
SW684, 1.111 µM | 1.141
SW684, 3.333 µM | 1.13
SW684, 10 µM | 1.19
SW872, 0.00017 µM | 0.98
SW872, 0.00051 µM | 0.967
SW872, 0.00152 µM | 0.991
SW872, 0.00457 µM | 0.988
SW872, 0.01372 µM | 0.968
SW872, 0.04115 µM | 0.973
SW872, 0.1235 µM | 0.986
SW872, 0.3704 µM | 1.02
SW872, 1.111 µM | 1.04
SW872, 3.333 µM | 1.05
SW872, 10 µM | 1.03
SW982, 0.00017 µM | 1.05
SW982, 0.00051 µM | 1.03
SW982, 0.00152 µM | 1.04
SW982, 0.00457 µM | 1.04
SW982, 0.01372 µM | 1.05
SW982, 0.04115 µM | 1.05
SW982, 0.1235 µM | 1.06
SW982, 0.3704 µM | 1.04
SW982, 1.111 µM | 1.09
SW982, 3.333 µM | 1.08
SW982, 10 µM | 1.12
SW1353, 0.00017 µM | 0.949
SW1353, 0.00051 µM | 0.952
SW1353, 0.00152 µM | 0.999
SW1353, 0.00457 µM | 0.928
SW1353, 0.01372 µM | 0.97
SW1353, 0.04115 µM | 0.963
SW1353, 0.1235 µM | 0.94
SW1353, 0.3704 µM | 0.958
SW1353, 1.111 µM | 0.97
SW1353, 3.333 µM | 0.984
SW1353, 10 µM | 0.977
SYO-1, 0.00017 µM | 0.934
SYO-1, 0.00051 µM | 0.937
SYO-1, 0.00152 µM | 0.94
SYO-1, 0.00457 µM | 0.927
SYO-1, 0.01372 µM | 0.9194
SYO-1, 0.04115 µM | 0.914
SYO-1, 0.1235 µM | 0.906
SYO-1, 0.3704 µM | 0.903
SYO-1, 1.111 µM | 0.846
SYO-1, 3.333 µM | 0.673
SYO-1, 10 µM | 0.586
